# From the supplement of paper PMC5908809
# Key:
# [1] = system: normal NK cells expanded with K562-aAPC; experiment: percent inhibition of viability; higher = more inhibition; conditions: 72 h, IL-2 2.5 ng/mL
# Method: (§1)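 Drug sensitivity and resistance testing on K562-aAPC-expanded normal NK cells: 5 concentrations (10-fold steps over a 10,000-fold range), 72 h at 37 °C, viability by CellTiter-Glo normalised to DMSO and benzethonium chloride controls; DSS from the fitted curve.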
# [2] = system: DERL-7 (IL-2 2.5 ng/mL); experiment: as above; conditions: 72 h
# [3] = system: IMC-1 (IL-2 20 ng/mL); experiment: as above; conditions: 72 h
# [4] = system: KAI3 (IL-2 2.5 ng/mL); experiment: as above; conditions: 72 h
# [5] = system: KHYG-1 (IL-2 2.5 ng/mL); experiment: as above; conditions: 72 h
# [6] = system: NK-92 (IL-2 2.5 ng/mL); experiment: as above; conditions: 72 h
# [7] = system: NK-YS (IL-2 2.5 ng/mL); experiment: as above; conditions: 72 h
# [8] = system: NKL (IL-2 2.5 ng/mL); experiment: as above; conditions: 72 h
# [9] = system: SNK-6 (IL-2 2.5 ng/mL); experiment: as above; conditions: 72 h
# [10] = system: YT (IL-2 2.5 ng/mL); experiment: as above; conditions: 72 h
# [11] = system: normal primary NK cells, pool 1 (3 donors) (IL-2 2.5 ng/mL); experiment: as above; conditions: 72 h
# [12] = system: normal primary NK cells, pool 1 (3 donors), resting (IL-2 0 ng/mL); experiment: as above; conditions: 72 h
# [13] = system: normal primary NK cells, pool 2 (3 donors) (IL-2 2.5 ng/mL); experiment: as above; conditions: 72 h
# [14] = system: normal primary NK cells, pool 3 (3 donors) (IL-2 2.5 ng/mL); experiment: as above; conditions: 72 h
# [15] = system: normal NK cells expanded with K562-aAPC; experiment: drug sensitivity score (DSS) (DSS units); higher = more sensitive; extreme values may be limits of the assay; conditions: 72 h; IL-2 2.5 ng/mL
# Method: as §1
# [16] = system: DERL-7 (IL-2 2.5 ng/mL); experiment: as above; conditions: 72 h
# [17] = system: IMC-1 (IL-2 20 ng/mL); experiment: as above; conditions: 72 h
# [18] = system: KAI3 (IL-2 2.5 ng/mL); experiment: as above; conditions: 72 h
# [19] = system: KHYG-1 (IL-2 2.5 ng/mL); experiment: as above; conditions: 72 h
# [20] = system: NK-92 (IL-2 2.5 ng/mL); experiment: as above; conditions: 72 h
# [21] = system: NK-YS (IL-2 2.5 ng/mL); experiment: as above; conditions: 72 h
# [22] = system: NKL (IL-2 2.5 ng/mL); experiment: as above; conditions: 72 h
# [23] = system: SNK-6 (IL-2 2.5 ng/mL); experiment: as above; conditions: 72 h
# [24] = system: YT (IL-2 2.5 ng/mL); experiment: as above; conditions: 72 h
# [25] = system: normal primary NK cells, pool 1 (3 donors) (IL-2 2.5 ng/mL); experiment: as above; conditions: 72 h
# [26] = system: normal primary NK cells, pool 1 (3 donors), resting (IL-2 0 ng/mL); experiment: as above; conditions: 72 h
# [27] = system: normal primary NK cells, pool 2 (3 donors) (IL-2 2.5 ng/mL); experiment: as above; conditions: 72 h
# [28] = system: normal primary NK cells, pool 3 (3 donors) (IL-2 2.5 ng/mL); experiment: as above; conditions: 72 h
structure (smiles),measurement,setting,value
Cn1cnc2c(F)c(Nc3ccc(Br)cc3F)c(C(=O)NOCCO)cc21 [Binimetinib] (max concentration tested 1000 nM),percent inhibition of viability,[1]; 0.1 nM,1.57%
same,percent inhibition of viability,[1]; 1 nM,-5.49%
same,percent inhibition of viability,[1]; 10 nM,-0.07%
same,percent inhibition of viability,[1]; 100 nM,6.65%
same,percent inhibition of viability,[1]; 1000 nM,16.2%
same,percent inhibition of viability,[2]; 0.1 nM,1.19%
same,percent inhibition of viability,[2]; 1 nM,7.3%
same,percent inhibition of viability,[2]; 10 nM,10.5%
same,percent inhibition of viability,[2]; 100 nM,16.3%
same,percent inhibition of viability,[2]; 1000 nM,33.7%
same,percent inhibition of viability,[3]; 0.1 nM,-6%
same,percent inhibition of viability,[3]; 1 nM,-0.56%
same,percent inhibition of viability,[3]; 10 nM,-0.39%
same,percent inhibition of viability,[3]; 100 nM,4.96%
same,percent inhibition of viability,[3]; 1000 nM,6.74%
same,percent inhibition of viability,[4]; 0.1 nM,-1.37%
same,percent inhibition of viability,[4]; 1 nM,4.03%
same,percent inhibition of viability,[4]; 10 nM,7.85%
same,percent inhibition of viability,[4]; 100 nM,24.3%
same,percent inhibition of viability,[4]; 1000 nM,29.6%
same,percent inhibition of viability,[5]; 0.1 nM,-8.34%
same,percent inhibition of viability,[5]; 1 nM,-1.29%
same,percent inhibition of viability,[5]; 10 nM,0.25%
same,percent inhibition of viability,[5]; 100 nM,24.1%
same,percent inhibition of viability,[5]; 1000 nM,42.7%
same,percent inhibition of viability,[6]; 0.1 nM,-10.1%
same,percent inhibition of viability,[6]; 1 nM,-5.18%
same,percent inhibition of viability,[6]; 10 nM,-13.1%
same,percent inhibition of viability,[6]; 100 nM,0.36%
same,percent inhibition of viability,[6]; 1000 nM,-1.28%
same,percent inhibition of viability,[7]; 0.1 nM,-5.25%
same,percent inhibition of viability,[7]; 1 nM,-2.09%
same,percent inhibition of viability,[7]; 10 nM,-0.43%
same,percent inhibition of viability,[7]; 100 nM,5.51%
same,percent inhibition of viability,[7]; 1000 nM,15.3%
same,percent inhibition of viability,[8]; 0.1 nM,-7.91%
same,percent inhibition of viability,[8]; 1 nM,-8.09%
same,percent inhibition of viability,[8]; 10 nM,19.3%
same,percent inhibition of viability,[8]; 100 nM,43.6%
same,percent inhibition of viability,[8]; 1000 nM,53.2%
same,percent inhibition of viability,[9]; 0.1 nM,-19.8%
same,percent inhibition of viability,[9]; 1 nM,-4.3%
same,percent inhibition of viability,[9]; 10 nM,-10.5%
same,percent inhibition of viability,[9]; 100 nM,-10.4%
same,percent inhibition of viability,[9]; 1000 nM,-8.36%
same,percent inhibition of viability,[10]; 0.1 nM,-6.43%
same,percent inhibition of viability,[10]; 1 nM,-3.81%
same,percent inhibition of viability,[10]; 10 nM,-0.11%
same,percent inhibition of viability,[10]; 100 nM,2.57%
same,percent inhibition of viability,[10]; 1000 nM,13.4%
same,percent inhibition of viability,[11]; 0.1 nM,-6.5%
same,percent inhibition of viability,[11]; 1 nM,12.6%
same,percent inhibition of viability,[11]; 10 nM,14.8%
same,percent inhibition of viability,[11]; 100 nM,18.1%
same,percent inhibition of viability,[11]; 1000 nM,22.7%
same,percent inhibition of viability,[12]; 0.1 nM,-4.5%
same,percent inhibition of viability,[12]; 1 nM,21.4%
same,percent inhibition of viability,[12]; 10 nM,12.5%
same,percent inhibition of viability,[12]; 100 nM,9.21%
same,percent inhibition of viability,[12]; 1000 nM,17.1%
same,percent inhibition of viability,[13]; 0.1 nM,-7.84%
same,percent inhibition of viability,[13]; 1 nM,-6.09%
same,percent inhibition of viability,[13]; 10 nM,8.89%
same,percent inhibition of viability,[13]; 100 nM,-1.5%
same,percent inhibition of viability,[13]; 1000 nM,11%
same,percent inhibition of viability,[14]; 0.1 nM,-5.24%
same,percent inhibition of viability,[14]; 1 nM,2.75%
same,percent inhibition of viability,[14]; 10 nM,-0.18%
same,percent inhibition of viability,[14]; 100 nM,2.58%
same,percent inhibition of viability,[14]; 1000 nM,2.52%
same,drug sensitivity score,[15],0.91
same,drug sensitivity score,[16],3.71
same,drug sensitivity score,[17],0
same,drug sensitivity score,[18],4.5
same,drug sensitivity score,[19],5.14
same,drug sensitivity score,[20],0
same,drug sensitivity score,[21],0.72
same,drug sensitivity score,[22],10.4
same,drug sensitivity score,[23],0
same,drug sensitivity score,[24],0.31
same,drug sensitivity score,[25],4.75
same,drug sensitivity score,[26],1.99
same,drug sensitivity score,[27],0
same,drug sensitivity score,[28],0
CC[C@H](NC(=O)[C@H](C)NC)C(=O)N1C[C@@H](O)C[C@H]1Cc1c(-c2[nH]c3cc(F)ccc3c2C[C@@H]2C[C@H](O)CN2C(=O)[C@H](CC)NC(=O)[C@H](C)NC)[nH]c2cc(F)ccc12 [Birinapant] (max concentration tested 1000 nM),percent inhibition of viability,[1]; 0.1 nM,-2.92%
same,percent inhibition of viability,[1]; 1 nM,-0.28%
same,percent inhibition of viability,[1]; 10 nM,2.8%
same,percent inhibition of viability,[1]; 100 nM,10.2%
same,percent inhibition of viability,[1]; 1000 nM,38.9%
same,percent inhibition of viability,[2]; 0.1 nM,7.8%
same,percent inhibition of viability,[2]; 1 nM,5.54%
same,percent inhibition of viability,[2]; 10 nM,23.2%
same,percent inhibition of viability,[2]; 100 nM,43.1%
same,percent inhibition of viability,[2]; 1000 nM,46.6%
same,percent inhibition of viability,[3]; 0.1 nM,-3.47%
same,percent inhibition of viability,[3]; 1 nM,1.41%
same,percent inhibition of viability,[3]; 10 nM,-0.22%
same,percent inhibition of viability,[3]; 100 nM,1.34%
same,percent inhibition of viability,[3]; 1000 nM,45.6%
same,percent inhibition of viability,[4]; 0.1 nM,1.71%
same,percent inhibition of viability,[4]; 1 nM,-5.41%
same,percent inhibition of viability,[4]; 10 nM,-0.72%
same,percent inhibition of viability,[4]; 100 nM,9.21%
same,percent inhibition of viability,[4]; 1000 nM,15.7%
same,percent inhibition of viability,[5]; 0.1 nM,-2.97%
same,percent inhibition of viability,[5]; 1 nM,-5.19%
same,percent inhibition of viability,[5]; 10 nM,-7.39%
same,percent inhibition of viability,[5]; 100 nM,-1.77%
same,percent inhibition of viability,[5]; 1000 nM,17.7%
same,percent inhibition of viability,[6]; 0.1 nM,-4.58%
same,percent inhibition of viability,[6]; 1 nM,-12.3%
same,percent inhibition of viability,[6]; 10 nM,5.84%
same,percent inhibition of viability,[6]; 100 nM,11.1%
same,percent inhibition of viability,[6]; 1000 nM,31%
same,percent inhibition of viability,[7]; 0.1 nM,-2.88%
same,percent inhibition of viability,[7]; 1 nM,-9.14%
same,percent inhibition of viability,[7]; 10 nM,-8.38%
same,percent inhibition of viability,[7]; 100 nM,-5.45%
same,percent inhibition of viability,[7]; 1000 nM,-8.45%
same,percent inhibition of viability,[8]; 0.1 nM,5.63%
same,percent inhibition of viability,[8]; 1 nM,0.8%
same,percent inhibition of viability,[8]; 10 nM,3.21%
same,percent inhibition of viability,[8]; 100 nM,19.2%
same,percent inhibition of viability,[8]; 1000 nM,32.2%
same,percent inhibition of viability,[9]; 0.1 nM,-1.62%
same,percent inhibition of viability,[9]; 1 nM,-1.64%
same,percent inhibition of viability,[9]; 10 nM,-7.31%
same,percent inhibition of viability,[9]; 100 nM,-10.8%
same,percent inhibition of viability,[9]; 1000 nM,-16.1%
same,percent inhibition of viability,[10]; 0.1 nM,1.52%
same,percent inhibition of viability,[10]; 1 nM,-1.94%
same,percent inhibition of viability,[10]; 10 nM,2.55%
same,percent inhibition of viability,[10]; 100 nM,4.56%
same,percent inhibition of viability,[10]; 1000 nM,2.39%
same,percent inhibition of viability,[11]; 0.1 nM,-9.47%
same,percent inhibition of viability,[11]; 1 nM,-11.8%
same,percent inhibition of viability,[11]; 10 nM,3.46%
same,percent inhibition of viability,[11]; 100 nM,0.49%
same,percent inhibition of viability,[11]; 1000 nM,69.2%
same,percent inhibition of viability,[12]; 0.1 nM,-23.1%
same,percent inhibition of viability,[12]; 1 nM,-28.9%
same,percent inhibition of viability,[12]; 10 nM,-10.4%
same,percent inhibition of viability,[12]; 100 nM,-2.86%
same,percent inhibition of viability,[12]; 1000 nM,73.8%
same,percent inhibition of viability,[13]; 0.1 nM,-6.05%
same,percent inhibition of viability,[13]; 1 nM,-7.14%
same,percent inhibition of viability,[13]; 10 nM,-11.2%
same,percent inhibition of viability,[13]; 100 nM,2.7%
same,percent inhibition of viability,[13]; 1000 nM,53.1%
same,percent inhibition of viability,[14]; 0.1 nM,-4.73%
same,percent inhibition of viability,[14]; 1 nM,-7.57%
same,percent inhibition of viability,[14]; 10 nM,-8.06%
same,percent inhibition of viability,[14]; 100 nM,-3.61%
same,percent inhibition of viability,[14]; 1000 nM,38.2%
same,drug sensitivity score,[15],3.47
same,drug sensitivity score,[16],10.5
same,drug sensitivity score,[17],2.52
same,drug sensitivity score,[18],1
same,drug sensitivity score,[19],0.34
same,drug sensitivity score,[20],2.35
same,drug sensitivity score,[21],0
same,drug sensitivity score,[22],3.5
same,drug sensitivity score,[23],0
same,drug sensitivity score,[24],0
same,drug sensitivity score,[25],3.88
same,drug sensitivity score,[26],3.83
same,drug sensitivity score,[27],3.2
same,drug sensitivity score,[28],1.6
